Like-named read-outs stand apart in the source and are kept apart here. Marks after values point to notes of the source that are not given here.

The nature of the data set: logP by HPLC on reversed-phase columns (C 18), EEC directive 79/831 Annex V.A8. The following applies: for chromatographic logP: reversed-phase HPLC column (C 18). It is filed as physicochemical. How it is done: Calibration was carried out using unbranched alkan-2-ones (having from 3 to 16 carbon atoms) with known logP values (the logP values were determined by the retention times using linear interpolation between two successive alkanones).

Where [1] appears, read: LC-MS, acidic range, pH 2.7, 0.1% aqueous formic acid and acetonitrile.
Setting [2] is: LC-MS, neutral range, pH 7.8, 0.001 molar aqueous ammonium bicarbonate and acetonitrile.
[3] abbreviates: acidic range, pH 2.3, 0.1% aqueous phosphoric acid and acetonitrile.
Where [4] appears, read: LC-MS, neutral range, pH 7.8, 0.001 molar aqueous ammonium bicarbonate and acetonitrile, read-out: log P (***).
[5] abbreviates: acidic range, pH 2.3, 0.1% aqueous phosphoric acid and acetonitrile, read-out: log P (*).

Regarding `CCOc1ccccc1-c1csc(N=C2CCCCN2C(C)=O)n1` [compound 33, 1-[(2E/Z)-2-{[4-(2-ethoxyphenyl)-1,3-thiazol-2-yl]imino}piperidin-1-yl]ethanone], the “log P (**)” value under setting [1] amounted to 2.71. Further, under setting [2], the “log P (***)” value is given as 5.03. Further, the “log P (*)” value under setting [3] is listed as 2.71. On to `CC(=O)N1CCCCC1=Nc1nc(-c2ccc(Cl)cc2)cs1` [compound 34, 1-[(2E/Z)-2-{[4-(4-chlorophenyl)-1,3-thiazol-2-yl]imino}piperidin-1-yl]ethanone], for which, under setting [1], the “log P (**)” value was 3.78**; 3.78***; 3.78*. For the same molecule, the “log P (***)” value under setting [2] is recorded as 3.78**; 3.78***; 3.78*. Also, under setting [3], the “log P (*)” value was 3.78**; 3.78***; 3.78*. On to `CC(=O)N1CCCCC1=Nc1nc(-c2ccc(Cl)cc2Cl)cs1` [compound 35, 1-[(2E/Z)-2-{[4-(2,4-dichlorophenyl)-1,3-thiazol-2-yl]imino}piperidin-1-yl]ethanone], for which the chromatographic logP reads like this: (LC-MS, acidic range, pH 2.7, 0.1% aqueous formic acid and acetonitrile, read-out: log P (**)) 4.33; under setting [4], 4.33; under setting [5], 4.33. Regarding `CC(=O)N1CCCCC1=Nc1nc(-c2cccc(Cl)c2Cl)cs1` [compound 36, 1-[(2E/Z)-2-{[4-(2,3-dichlorophenyl)-1,3-thiazol-2-yl]imino}piperidin-1-yl]ethanone], the “log P (**)” value under setting [1] is 4.03. The “log P (***)” value under setting [2] came out at 4.02. Besides, the “log P (*)” value under setting [3] turned out to be 4.03. Take `CC(=O)N1CCCCC1=Nc1nc(-c2cccc(F)c2F)cs1` [compound 37, 1-[(2E/Z)-2-{[4-(2,3-difluorophenyl)-1,3-thiazol-2-yl]imino}piperidin-1-yl]ethanone]: the “log P (**)” value under setting [1] is 3.63**; 3.63***; 3.63*. Also, under setting [2], the “log P (***)” value is 3.63**; 3.63***; 3.63*. Further, the “log P (*)” value under setting [3] was 3.63**; 3.63***; 3.63*. As to `CC(=O)N1CCCCC1=Nc1nc(-c2cccc(C(F)(F)F)c2F)cs1` [compound 38, 1-[(2E/Z)-2-({4-[2-fluoro-3-(trifluoromethyl)phenyl]-1,3-thiazol-2-yl}imino)piperidin-1-yl]ethanone], the “log P (**)” value under setting [1] was found to be 4.25. The “log P (***)” value under setting [2] worked out at 4.23. Also, under setting [3], the “log P (*)” value is given as 4.25. As for `CC(=O)N1CCCCC1=Nc1nc(-c2ccc3c(c2)OCO3)cs1` [compound 39, 1-[(2E/Z)-2-{[4-(1,3-benzodioxol-5-yl)-1,3-thiazol-2-yl]imino}piperidin-1-yl]ethanone], the “log P (**)” value under setting [1] came out at 2.96. For the same molecule, the “log P (***)” value under setting [2] is given as 2.95. In addition, under setting [3], the “log P (*)” value amounted to 2.96. In the case of `CC(=O)N1CCCCC1=Nc1nc(-c2cc(F)cc(F)c2)cs1` [compound 40, 1-[(2E/Z)-2-{[4-(3,5-difluoro-phenyl)-1,3-thiazol-2-yl]imino}piperidin-1-yl]ethanone], the “log P (**)” value under setting [1] is 3.63. Moreover, the “log P (***)” value under setting [2] was 3.62. The “log P (*)” value under setting [3] is reported as 3.63. `CC(=O)N1CCCCC1=Nc1nc(-c2ccc(F)c(Cl)c2)cs1` [compound 41, 1-[(2E/Z)-2-{[4-(3-chloro-4-fluorophenyl)-1,3-thiazol-2-yl]imino}piperidin-1-yl]ethanone]: under setting [1], the “log P (**)” value was 3.88**; 3.88***; 3.88*. Moreover, under setting [2], the “log P (***)” value was 3.88**; 3.88***; 3.88*. In addition, under setting [3], the “log P (*)” value is 3.88**; 3.88***; 3.88*.

As to `CC(=O)N1CCCCC1=Nc1nc(-c2ccc(Cl)cc2)c(C)s1` [compound 42, 1-[(2E/Z)-2-{[4-(4-chlorophenyl)-5-methyl-1,3-thiazol-2-yl]imino}piperidin-1-yl]ethanone], the “log P (**)” value under setting [1] was 3.92. The “log P (***)” value under setting [2] worked out at 3.96. The “log P (*)” value under setting [3] was determined as 3.92. As to `CC(=O)N1CCCCC1=Nc1nc(-c2cccc(F)c2F)c(C)s1` [compound 43, 1-[(2E/Z)-2-{[4-(2,3-difluorophenyl)-5-methyl-1,3-thiazol-2-yl]imino}piperidin-1-yl]ethanone], the “log P (**)” value under setting [1] is given as 3.37**; 3.37***; 3.37*. For the same molecule, the “log P (***)” value under setting [2] is listed as 3.37**; 3.37***; 3.37*. Moreover, the “log P (*)” value under setting [3] is reported as 3.37**; 3.37***; 3.37*. Regarding `Cc1sc(N=C2CCCCN2)nc1-c1cccc(F)c1F` [compound 44, 4-(2,3-difluorophenyl)-5-methyl-N-[(2E/Z)-piperidin-2-ylidene]-1,3-thiazole-2-amine], the “log P (**)” value under setting [1] amounted to 1.7. Also, the “log P (***)” value under setting [2] turned out to be 3.2. Further, under setting [3], the “log P (*)” value stood at 1.7. For `FC(F)(F)c1cccc(-c2csc(N=C3CCCCN3)n2)c1` [compound 45, N-[(2E/Z)-piperidin-2-ylidene]-4-[3-(trifluoromethyl)phenyl]-1,3-thiazole-2-amine], the “log P (**)” value under setting [1] came to 1.97. Besides, under setting [2], the “log P (***)” value came to 3.55. As for `Brc1cccc(-c2csc(N=C3CCCCN3)n2)c1` [compound 46, 4-(3-bromophenyl)-N-[(2E/Z)-piperidin-2-ylidene]-1,3-thiazole-2-amine], the “log P (**)” value under setting [1] is on record as 1.8**. Turning to `CC(C)(C)Cc1cccc(-c2csc(N=C3CCCCN3)n2)c1` [compound 47, 4-[3-(2,2-dimethylpropyl)phenyl]-N-[(2E/Z)-piperidin-2-ylidene]-1,3-thiazole-2-amine], the “log P (**)” value under setting [1] is recorded as 2.51. The “log P (***)” value under setting [2] was found to be 4.86. Regarding `Brc1ccccc1-c1csc(N=C2CCCCN2)n1` [compound 48, 4-(2-bromophenyl)-N-[(2E/Z)-piperidin-2-ylidene]-1,3-thiazole-2-amine], the “log P (**)” value under setting [1] came out at 1.58. The “log P (***)” value under setting [2] stood at 3.25. For `FC(F)Oc1ccc(-c2csc(N=C3CCCCN3)n2)cc1` [compound 49, 4-[4-(difluoromethoxy)phenyl]-N-[(2E/Z)-piperidin-2-ylidene]-1,3-thiazole-2-amine], the “log P (**)” value under setting [1] is 1.44**. Take `FC(F)(F)Oc1ccc(-c2csc(N=C3CCCCN3)n2)cc1` [compound 50, N-[(2E/Z)-piperidin-2-ylidene]-4-[4-(trifluoromethoxy)phenyl]-1,3-thiazole-2-amine]: the “log P (**)” value under setting [1] is on record as 1.78**. Same read-out and setting: for `Clc1cccc(Cl)c1-c1csc(N=C2CCCCN2)n1` [compound 51, 4-(2,6-dichlorophenyl)-N-[(2E/Z)-piperidin-2-ylidene]-1,3-thiazole-2-amine] the value was 1.42**. Consider `Clc1ccc(-c2csc(N=C3CCCCN3)n2)cc1Cl` [compound 52, 4-(3,4-dichlorophenyl)-N-[(2E/Z)-piperidin-2-ylidene]-1,3-thiazole-2-amine], for which the chromatographic logP turned out to be 3.93 under setting [4] and 1.68 under setting [5]. Regarding `Clc1ncccc1-c1csc(N=C2CCCCN2)n1` [compound 53, 4-(2-chloropyridin-3-yl)-N-[(2E/Z)-piperidin-2-ylidene]-1,3-thiazole-2-amine], the “log P (*)” value under setting [3] was 0.71*.

On to `Fc1ccc(-c2csc(N=C3CCCCN3)n2)cc1` [compound 54, 4-(4-fluorophenyl)-N-[(2E/Z)-piperidin-2-ylidene]-1,3-thiazole-2-amine], for which, under setting [3], the “log P (*)” value was 1.23*. Regarding `Clc1cc(Cl)cc(-c2csc(N=C3CCCCN3)n2)c1` [compound 55, 4-(3,5-dichlorophenyl)-N-[(2E/Z)-piperidin-2-ylidene]-1,3-thiazole-2-amine], the “log P (***)” value under setting [2] amounted to 4.21. The “log P (*)” value under setting [3] came out at 1.59. With `COc1ccc(-c2csc(N=C3CCCCN3)n2)cc1` [compound 56, 4-(4-methoxyphenyl)-N-[(2E/Z)-piperidin-2-ylidene]-1,3-thiazole-2-amine], under setting [3], the “log P (*)” value is 1.18*.

As to `COc1cccc(-c2csc(N=C3CCCCN3)n2)c1` [compound 57, 4-(3-methoxyphenyl)-N-[(2E/Z)-piperidin-2-ylidene]-1,3-thiazole-2-amine], the “log P (***)” value under setting [2] turned out to be 2.76. For the same molecule, the “log P (*)” value under setting [3] was determined as 1.19. Regarding `Clc1cccc(-c2csc(N=C3CCCCN3)n2)c1` [compound 59, 4-(3-chlorophenyl)-N-[(2E/Z)-piperidin-2-ylidene]-1,3-thiazole-2-amine], under setting [1], the “log P (**)” value was 1.37**. For `Cc1cccc(-c2csc(N=C3CCCCN3)n2)c1` [compound 60, 4-(3-methylphenyl)-N-[(2E/Z)-piperidin-2-ylidene]-1,3-thiazole-2-amine], the “log P (*)” value under setting [3] is reported as 1.32*.

`c1ccc(-c2csc(N=C3CCCCN3)n2)nc1` [compound 61, N-[(2E/Z)-piperidin-2-ylidene]-4-(pyridin-2-yl)-1,3-thiazole-2-amine]: the “log P (**)” value under setting [1] is 0.27**. For `Cc1cccc(-c2csc(N=C3CCCCN3)n2)n1` [compound 62, 4-(6-methylpyridin-2-yl)-N-[(2E/Z)-piperidin-2-ylidene]-1,3-thiazole-2-amine], the “log P (***)” value under setting [2] is 2.13. Moreover, under setting [3], the “log P (*)” value worked out at 0.29. On the same counts, the results for `Clc1ccc(-c2csc(N=C3CCCCN3)n2)cn1` [compound 63, 4-(6-chloropyridin-3-yl)-N-[(2E/Z)-piperidin-2-ylidene]-1,3-thiazole-2-amine] are 2.38 and 0.94. Regarding `c1ccc(-c2ccccc2-c2csc(N=C3CCCCN3)n2)cc1` [compound 64, 4-(biphenyl-2-yl)-N-[(2E/Z)-piperidin-2-ylidene]-1,3-thiazole-2-amine], under setting [1], the “log P (**)” value is given as 1.82**. On the same count and under the same terms, the same measure for `Cc1cccc(-c2ccccc2-c2csc(N=C3CCCCN3)n2)c1` [compound 65, 4-(3′-methylbiphenyl-2-yl)-N-[(2E/Z)-piperidin-2-ylidene]-1,3-thiazole-2-amine]: 2**; for `Clc1ccc(-c2ccccc2-c2csc(N=C3CCCCN3)n2)cc1Cl` [compound 66, 4-(3′,4′-dichloro-biphenyl-2-yl)-N-[(2E/Z)-piperidin-2-ylidene]-1,3-thiazole-2-amine]: 2.2**. Same read-out and setting: the same measure for `COc1ccc(-c2ccccc2-c2csc(N=C3CCCCN3)n2)cc1` [compound 67, 4-(4′-methoxybiphenyl-2-yl)-N-[(2E/Z)-piperidin-2-ylidene]-1,3-thiazole-2-amine]: 1.83**.

The values above are taken from patent US20110053770A1, “SUBSTITUTED AMINOTHIAZOLES AND THEIR USE AS FUNGICIDES” (BAYER CROPSCIENCE AG, priority 2009, published 2011).
